Data from article PMC4177084 (Journal of Thyroid Research, 2014).

Experiments:
FGFR4 = biological target: T1, FGFR4 (Homo sapiens, UniProt P22455); experiment: Cell free kinase inhibition assay; assay type: biochemical
T1 construct: purchased Carna Biosciences, Inc. (Kobe, Japan)

INSR = biological target: T2, INSR (Homo sapiens, UniProt P06213); experiment: Cell free kinase inhibition assay; assay type: biochemical
T2 construct: purchased Carna Biosciences, Inc. (Kobe, Japan)

NEK2 = biological target: T3, NEK2 (Homo sapiens, UniProt P51955); experiment: Cell free kinase inhibition assay; assay type: biochemical
T3 construct: purchased Carna Biosciences, Inc. (Kobe, Japan)

FRS2 = experiment: Western blot of FRS2 phosphorylation in RO82-W-1 xenografts; assay type: in vivo, nude mice; details: 2 h after single oral 3, 10, 30, or 100 mg/kg
IRAK4 = biological target: T4, IRAK4 (Homo sapiens, UniProt Q9NWZ3); experiment: Cell free kinase inhibition assay; assay type: biochemical
T4 construct: purchased Carna Biosciences, Inc. (Kobe, Japan)

8305C cells = experiment: Antiproliferation assay (WST-8); assay type: cell-based; details: Homo sapiens, 72 h; 8305C (ATC), antiproliferative, 3 days
FRK = biological target: T5, FRK (Homo sapiens, UniProt P42685); experiment: Cell free kinase inhibition assay; assay type: biochemical
T5 construct: purchased Carna Biosciences, Inc. (Kobe, Japan)

RO82-W-1 xenograft = experiment: Human thyroid cancer xenograft model, tumor growth; assay type: in vivo, nude mice
Description: Nude mice (CAnN.Cg-Foxn1nu/CrlCrlj, female, 5-6 weeks old) were obtained from Charles River Laboratories Japan (Kanagawa, Japan). Mice were maintained under specific pathogen-free conditions and housed in barrier facilities on a 12 h light/dark cycle, with food and water ad libitum. All procedures using laboratory animals were done in accordance with all applicable institutional and government regulatory guidelines and policies and were performed in an animal facility accredited by the Center for Accreditation of Laboratory Animal Care of the Japan Health Sciences Foundation.
Tumor cells were cultured in appropriate culture mediums. Cells were harvested with 0.05% or 0.25% (w/v) trypsin/EDTA and suspended with 50% (v/v) BD Matrigel (BD Biosciences, San Jose, CA) in the mixture of culture mediums at a density of 5–10 × 10^7 cells/mL. Then, 0.1-0.2 mL of the cell suspension was inoculated subcutaneously into the right flank region of each mouse. […] The tumor size was measured in two dimensions by using a caliper, and the volume was calculated by using the formula: tumor volume (mm^3) = 1/2 length (mm) × [width (mm)]^2. The change in tumor volume in the treated group relative to that in the control group was calculated according to the following formula: ΔT/C = (ΔT/ΔC) × 100%, where ΔT and ΔC are the change in tumor volume (i.e., growth) for the treated and vehicle control group, respectively. The percentage of tumor growth inhibition (%TGI) was calculated from the formula: [(1 − ΔT/ΔC) × 100].
Supplementary Fig. S7 Comparison of antitumor activity with antiangiogenesis activity in human differentiated thyroid cancer RO82-W-1 xenografts in nude mice.
Nude mice bearing RO82-W-1 xenografts […]
when tumor volumes reached about 200 mm3 (day 1). The tumor volume was measured on day 22. Each group consisted of 6 mice. Data are shown as means ± SD. * P < 0.05 compared with vehicle-treated mice.
(b) The percentage of tumor growth inhibition (%TGI). Each group consisted of 6 mice. Antitumor activity was calculated as %TGI at day 22. Data are shown as means ± SD. * P < 0.05 compared […]
analyze the relationship between antitumor activity (%TGI) and antiangiogenesis activity (percentage of […]
sorafenib-treated groups were plotted on the X- and Y-axes, respectively. %TGI and %MVI was determined as described in Materials and Methods. Analysis of covariance (ANCOVA) for %TGI was examined by using %MVI as a covariate (P<0.05)

IKKb = biological target: T6, IKKb (Homo sapiens, UniProt O14920); experiment: Cell free kinase inhibition assay; assay type: biochemical
T6 construct: purchased Carna Biosciences, Inc. (Kobe, Japan)

FGFR3(K650M) = biological target: T7, FGFR3(K650M) (Homo sapiens, UniProt P22607, K650M); experiment: Cell free kinase inhibition assay; assay type: biochemical
T7 construct: purchased Carna Biosciences, Inc. (Kobe, Japan)

RET (C634W) and ERK1/2 = experiment: Western blot of RET phosphorylation in TT cells; details: cultured TT cells, 1 h treatment
CDK6 = biological target: T8, CDK6 (Homo sapiens, UniProt Q00534); experiment: Cell free kinase inhibition assay; assay type: biochemical
T8 construct: purchased Carna Biosciences, Inc. (Kobe, Japan)

[1] = system: FGFR1 and its downstream effectors (FRS2, MEK, ERK); experiment: Western blot of FGFR1 signaling in bFGF-stimulated RO82-W-1 cells; details: 1 h treatment, then bFGF 20 ng/mL and heparin 10 min
SYK = biological target: T9, SYK (Homo sapiens, UniProt P43405); experiment: Cell free kinase inhibition assay; assay type: biochemical
T9 construct: purchased Carna Biosciences, Inc. (Kobe, Japan)

PDGFRβ = biological target: T10, PDGFRβ (Homo sapiens, UniProt P09619); experiment: Cell free kinase inhibition assay; assay type: biochemical
T10 construct: purchased Carna Biosciences, Inc. (Kobe, Japan)

TIE2 = biological target: T11, TIE2 (Homo sapiens, UniProt Q02763); experiment: Cell free kinase inhibition assay; assay type: biochemical
T11 construct: purchased Carna Biosciences, Inc. (Kobe, Japan)

FGR = biological target: T12, FGR (Homo sapiens, UniProt P09769); experiment: Cell free kinase inhibition assay; assay type: biochemical
T12 construct: purchased Carna Biosciences, Inc. (Kobe, Japan)

RET = experiment: Western blot of RET phosphorylation in TT xenografts; details: 2 h after oral administration
RAF1 = biological target: T13, RAF1 (Homo sapiens, UniProt P04049); experiment: Cell free kinase inhibition assay; assay type: biochemical
T13 construct: purchased Carna Biosciences, Inc. (Kobe, Japan)

HTC/C3 cells = experiment: Antiproliferation assay (WST-8); assay type: cell-based; details: Homo sapiens, 72 h; HTC/C3 (ATC), antiproliferative, 3 days

T4 sequence (Q9NWZ3 whole entry): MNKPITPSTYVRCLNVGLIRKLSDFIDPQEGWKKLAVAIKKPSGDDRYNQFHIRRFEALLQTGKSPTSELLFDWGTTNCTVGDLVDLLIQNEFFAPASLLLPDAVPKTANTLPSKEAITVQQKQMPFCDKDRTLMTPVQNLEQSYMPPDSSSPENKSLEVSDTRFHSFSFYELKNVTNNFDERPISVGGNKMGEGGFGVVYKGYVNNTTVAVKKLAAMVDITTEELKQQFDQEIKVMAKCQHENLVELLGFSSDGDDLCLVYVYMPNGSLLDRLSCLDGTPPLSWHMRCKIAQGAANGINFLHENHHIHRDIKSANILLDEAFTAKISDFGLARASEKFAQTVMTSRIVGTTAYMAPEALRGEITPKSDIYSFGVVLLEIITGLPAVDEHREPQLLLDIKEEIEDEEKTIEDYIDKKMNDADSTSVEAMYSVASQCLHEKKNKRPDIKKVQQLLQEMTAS
T3 sequence (P51955 whole entry): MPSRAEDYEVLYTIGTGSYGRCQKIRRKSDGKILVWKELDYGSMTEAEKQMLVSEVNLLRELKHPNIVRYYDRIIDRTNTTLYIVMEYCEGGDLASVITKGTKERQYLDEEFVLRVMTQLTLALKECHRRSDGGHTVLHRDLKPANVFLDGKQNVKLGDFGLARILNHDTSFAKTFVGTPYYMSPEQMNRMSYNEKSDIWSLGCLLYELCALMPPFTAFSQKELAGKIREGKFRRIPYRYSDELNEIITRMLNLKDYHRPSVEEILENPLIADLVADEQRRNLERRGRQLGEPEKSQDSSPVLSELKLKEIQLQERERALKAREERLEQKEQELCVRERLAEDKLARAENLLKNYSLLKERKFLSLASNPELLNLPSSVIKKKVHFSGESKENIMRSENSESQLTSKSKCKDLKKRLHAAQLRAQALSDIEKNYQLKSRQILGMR
T2 sequence (P06213 28-1382): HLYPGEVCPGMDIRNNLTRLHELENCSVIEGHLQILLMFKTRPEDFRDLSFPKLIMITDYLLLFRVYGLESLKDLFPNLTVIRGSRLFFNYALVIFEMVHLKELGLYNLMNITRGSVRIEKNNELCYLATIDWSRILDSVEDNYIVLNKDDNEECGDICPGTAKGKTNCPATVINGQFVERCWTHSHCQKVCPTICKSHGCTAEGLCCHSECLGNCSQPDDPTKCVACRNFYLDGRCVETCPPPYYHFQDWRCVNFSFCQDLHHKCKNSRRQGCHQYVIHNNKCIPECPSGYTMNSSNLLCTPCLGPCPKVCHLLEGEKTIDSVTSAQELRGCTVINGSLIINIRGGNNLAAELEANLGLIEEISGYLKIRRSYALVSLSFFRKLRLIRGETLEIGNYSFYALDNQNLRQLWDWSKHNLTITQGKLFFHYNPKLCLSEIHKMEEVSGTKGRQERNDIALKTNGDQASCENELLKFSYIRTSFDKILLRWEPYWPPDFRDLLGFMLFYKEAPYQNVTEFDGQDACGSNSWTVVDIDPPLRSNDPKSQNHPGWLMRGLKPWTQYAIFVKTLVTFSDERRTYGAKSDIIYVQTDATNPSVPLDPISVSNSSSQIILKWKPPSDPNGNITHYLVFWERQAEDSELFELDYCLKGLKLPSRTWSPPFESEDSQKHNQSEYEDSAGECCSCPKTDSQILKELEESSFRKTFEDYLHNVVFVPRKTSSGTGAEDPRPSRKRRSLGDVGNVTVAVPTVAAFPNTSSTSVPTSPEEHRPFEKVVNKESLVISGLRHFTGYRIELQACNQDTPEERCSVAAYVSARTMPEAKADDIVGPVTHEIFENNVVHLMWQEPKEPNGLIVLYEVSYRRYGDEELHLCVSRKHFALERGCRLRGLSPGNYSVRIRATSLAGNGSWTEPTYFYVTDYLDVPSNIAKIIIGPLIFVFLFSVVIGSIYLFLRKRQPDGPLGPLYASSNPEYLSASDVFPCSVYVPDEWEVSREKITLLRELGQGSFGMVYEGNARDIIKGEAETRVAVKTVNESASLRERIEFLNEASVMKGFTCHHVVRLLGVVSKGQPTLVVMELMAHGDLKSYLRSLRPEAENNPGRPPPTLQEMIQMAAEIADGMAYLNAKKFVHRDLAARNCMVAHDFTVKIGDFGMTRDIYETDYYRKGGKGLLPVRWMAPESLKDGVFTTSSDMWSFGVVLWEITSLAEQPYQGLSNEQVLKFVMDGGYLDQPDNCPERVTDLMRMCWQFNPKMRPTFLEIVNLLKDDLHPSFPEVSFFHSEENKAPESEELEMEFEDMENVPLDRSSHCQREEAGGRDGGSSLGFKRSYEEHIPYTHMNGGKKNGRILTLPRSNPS
T5 sequence (P42685 whole entry): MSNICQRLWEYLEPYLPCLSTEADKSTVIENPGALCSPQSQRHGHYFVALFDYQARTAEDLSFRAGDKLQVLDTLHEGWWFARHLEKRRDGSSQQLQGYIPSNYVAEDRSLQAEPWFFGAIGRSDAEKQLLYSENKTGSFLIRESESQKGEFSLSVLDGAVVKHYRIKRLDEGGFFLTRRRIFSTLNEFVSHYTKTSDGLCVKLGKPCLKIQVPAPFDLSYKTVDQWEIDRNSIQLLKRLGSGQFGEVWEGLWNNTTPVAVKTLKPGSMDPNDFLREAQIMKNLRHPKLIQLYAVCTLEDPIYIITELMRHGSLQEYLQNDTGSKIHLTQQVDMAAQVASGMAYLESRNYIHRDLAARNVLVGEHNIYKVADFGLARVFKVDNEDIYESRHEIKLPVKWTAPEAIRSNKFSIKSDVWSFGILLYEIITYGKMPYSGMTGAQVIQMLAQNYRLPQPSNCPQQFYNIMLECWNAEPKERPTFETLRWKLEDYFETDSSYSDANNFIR
T8 sequence (Q00534 whole entry): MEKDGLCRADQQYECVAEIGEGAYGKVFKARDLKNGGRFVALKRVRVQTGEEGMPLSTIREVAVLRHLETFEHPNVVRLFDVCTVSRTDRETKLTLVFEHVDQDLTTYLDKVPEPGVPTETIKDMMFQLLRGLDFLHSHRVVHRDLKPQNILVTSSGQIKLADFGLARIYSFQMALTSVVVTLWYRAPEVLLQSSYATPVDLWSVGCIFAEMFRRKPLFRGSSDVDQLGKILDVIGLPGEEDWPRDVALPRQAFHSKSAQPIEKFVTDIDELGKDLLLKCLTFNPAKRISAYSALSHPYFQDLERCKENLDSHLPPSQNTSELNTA
T8 sequence (P30281 whole entry partner): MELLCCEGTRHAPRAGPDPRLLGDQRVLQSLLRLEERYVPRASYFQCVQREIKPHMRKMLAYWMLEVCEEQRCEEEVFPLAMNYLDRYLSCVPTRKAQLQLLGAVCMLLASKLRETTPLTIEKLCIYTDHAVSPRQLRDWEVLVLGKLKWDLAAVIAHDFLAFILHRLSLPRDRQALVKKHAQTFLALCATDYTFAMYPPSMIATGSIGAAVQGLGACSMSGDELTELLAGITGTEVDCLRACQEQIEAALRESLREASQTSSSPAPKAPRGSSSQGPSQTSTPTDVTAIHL
T6 sequence (O14920 whole entry): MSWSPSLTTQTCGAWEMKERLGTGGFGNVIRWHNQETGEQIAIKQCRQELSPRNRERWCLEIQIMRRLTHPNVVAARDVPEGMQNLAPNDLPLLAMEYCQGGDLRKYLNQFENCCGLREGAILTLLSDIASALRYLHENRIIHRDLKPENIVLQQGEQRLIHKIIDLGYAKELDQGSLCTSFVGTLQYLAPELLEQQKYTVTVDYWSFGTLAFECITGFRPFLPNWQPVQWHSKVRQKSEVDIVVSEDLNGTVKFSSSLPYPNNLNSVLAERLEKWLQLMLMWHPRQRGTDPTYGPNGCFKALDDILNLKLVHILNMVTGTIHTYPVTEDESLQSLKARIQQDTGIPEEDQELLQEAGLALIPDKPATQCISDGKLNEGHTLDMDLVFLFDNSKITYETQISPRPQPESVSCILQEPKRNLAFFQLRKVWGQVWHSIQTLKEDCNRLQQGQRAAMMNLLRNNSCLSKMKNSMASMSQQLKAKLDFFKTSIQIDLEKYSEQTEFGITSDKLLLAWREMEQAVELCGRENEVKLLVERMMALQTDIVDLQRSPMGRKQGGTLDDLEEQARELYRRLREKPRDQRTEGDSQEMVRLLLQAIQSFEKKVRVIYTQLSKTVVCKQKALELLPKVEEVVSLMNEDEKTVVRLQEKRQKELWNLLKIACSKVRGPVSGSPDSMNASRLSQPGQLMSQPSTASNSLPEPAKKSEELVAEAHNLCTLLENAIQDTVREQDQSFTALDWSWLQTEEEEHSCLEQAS
T1 sequence (P22455 22-802): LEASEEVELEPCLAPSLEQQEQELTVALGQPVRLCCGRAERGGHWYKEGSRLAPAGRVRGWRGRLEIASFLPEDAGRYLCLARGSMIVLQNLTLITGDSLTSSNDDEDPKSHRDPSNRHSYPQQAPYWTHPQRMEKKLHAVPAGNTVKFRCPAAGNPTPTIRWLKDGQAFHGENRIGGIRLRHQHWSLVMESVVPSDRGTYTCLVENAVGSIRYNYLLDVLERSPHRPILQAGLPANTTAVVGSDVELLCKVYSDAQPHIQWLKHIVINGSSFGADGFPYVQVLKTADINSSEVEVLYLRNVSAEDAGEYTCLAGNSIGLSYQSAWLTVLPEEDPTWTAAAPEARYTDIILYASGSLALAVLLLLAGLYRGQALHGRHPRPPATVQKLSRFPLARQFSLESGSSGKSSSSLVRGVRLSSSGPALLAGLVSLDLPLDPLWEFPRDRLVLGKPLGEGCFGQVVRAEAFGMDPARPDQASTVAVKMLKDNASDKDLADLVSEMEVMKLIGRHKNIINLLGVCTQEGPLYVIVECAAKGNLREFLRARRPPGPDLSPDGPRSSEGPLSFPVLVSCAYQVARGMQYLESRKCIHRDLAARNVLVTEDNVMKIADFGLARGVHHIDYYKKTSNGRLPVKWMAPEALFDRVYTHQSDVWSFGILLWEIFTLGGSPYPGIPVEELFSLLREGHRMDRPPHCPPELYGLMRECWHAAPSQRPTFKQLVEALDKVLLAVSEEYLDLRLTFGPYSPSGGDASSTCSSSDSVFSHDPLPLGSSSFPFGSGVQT

SMILES: COc1cc2nccc(Oc3ccc(NC(=O)NC4CC4)c(Cl)c3)c2cc1C(N)=O [Lenvatinib, Lenvatinib mesilate]
- IC50 (FGFR4): 0.043 µM
- IC50 (INSR): > 10 µM
- IC50 (NEK2): > 10 µM
- phosphorylation of FRS2 (FRS2): decreased
- IC50 (IRAK4): > 10 µM
- IC50 (8305C cells): 26 µM
- IC50 (FRK): 0.16 µM
- antitumor activity (RO82-W-1 xenograft; RO82-W-1 xenograft, 1, 3, and 10 mg/kg oral once daily 14 days): significant antitumor activity
- antitumor activity compared with sorafenib (300 mg/kg) (RO82-W-1 xenograft; RO82-W-1 xenografts, 100 mg/kg oral once daily 21 days, %TGI day 22): significant potent antitumor activity
- antitumor activity (%TGI) normalized for angiogenesis inhibition (%MVI), versus sorafenib (RO82-W-1 xenograft; RO82-W-1 xenografts, ANCOVA): stronger antitumor activity
- IC50 (IKKb): > 10 µM
- IC50 (FGFR3(K650M)): 0.25 µM
- phosphorylation of RET and of ERK1/2 (RET (C634W) and ERK1/2): inhibited
- IC50 (CDK6): > 10 µM
- phosphorylation of FGFR1, FRS2, MEK, and ERK [1]: inhibited the phosphorylation of FGFR1 and of FRS2, MEK, and ERK, in a concentration-dependent manner
- IC50 (SYK): 8.7 µM
- IC50 (PDGFRβ): 0.16 µM
- IC50 (TIE2): 2.5 µM
- IC50 (FGR): 0.91 µM
- RET phosphorylation (RET): inhibition of RET phosphorylation
- IC50 (RAF1): 1.6 µM
- IC50 (HTC/C3 cells): 28 µM
